From patent US20260035364A1, “BICYCLIC TETRAHYDROTHIAZEPINE DERIVATIVES” (Hoffmann-La Roche Inc., priority 2022, published 2026)

Legend:
DGKzeta = DGKzeta (Homo sapiens, UniProt Q13574); test: In vitro DGK inhibition assay (ADP Glo) run by Reaction Biology Corp., DGKzeta; assay type: biochemical; design: purchased Reaction Biology Corp. (assay service); conditions: 2 nM kinase, 500 uM DLG, 10-dose duplicate
Description: (§1) DGK α and ζ kinases use ATP to phosphorylate the substrate 1,2-dilauroyl-sn-glycerol (DLG). ATP is converted to ADP as a result of this enzymatic reaction.
(§2) After the kinase reaction, an ATP-depletion reagent is added to terminate the kinase reaction and deplete any remaining ATP, leaving only ADP. Second, a detection reagent is added to simultaneously convert ADP to ATP and allow the newly synthesized ATP to be converted to light using a coupled
(§3) luciferase/luciferin reaction.
(§4) DGK α and ζ kinase ADP Glo assays were ran by Reaction Biology Corp., 1 Great Valley Parkway, Suite 2, Malvern, 19355, PA, USA. Information provided by the service provider are the following: DGK α and ζ kinases were used at 2 nM final concentration. Reactions were carried out at 50 µM ATP. 500 uM of the substrate DLG (Dilauroyl-sn-glycerol) was used.

DGKalpha = DGKalpha (Homo sapiens, UniProt P23743); test: In vitro DGK inhibition assay (ADP Glo) run by Reaction Biology Corp., DGKalpha; assay type: biochemical; design: purchased Reaction Biology Corp. (assay service); conditions: 2 nM kinase, 500 uM DLG, 10-dose duplicate
Description: as §1, §2, §3, §4

Sequence of DGKzeta (Q13574 whole entry, species assumed): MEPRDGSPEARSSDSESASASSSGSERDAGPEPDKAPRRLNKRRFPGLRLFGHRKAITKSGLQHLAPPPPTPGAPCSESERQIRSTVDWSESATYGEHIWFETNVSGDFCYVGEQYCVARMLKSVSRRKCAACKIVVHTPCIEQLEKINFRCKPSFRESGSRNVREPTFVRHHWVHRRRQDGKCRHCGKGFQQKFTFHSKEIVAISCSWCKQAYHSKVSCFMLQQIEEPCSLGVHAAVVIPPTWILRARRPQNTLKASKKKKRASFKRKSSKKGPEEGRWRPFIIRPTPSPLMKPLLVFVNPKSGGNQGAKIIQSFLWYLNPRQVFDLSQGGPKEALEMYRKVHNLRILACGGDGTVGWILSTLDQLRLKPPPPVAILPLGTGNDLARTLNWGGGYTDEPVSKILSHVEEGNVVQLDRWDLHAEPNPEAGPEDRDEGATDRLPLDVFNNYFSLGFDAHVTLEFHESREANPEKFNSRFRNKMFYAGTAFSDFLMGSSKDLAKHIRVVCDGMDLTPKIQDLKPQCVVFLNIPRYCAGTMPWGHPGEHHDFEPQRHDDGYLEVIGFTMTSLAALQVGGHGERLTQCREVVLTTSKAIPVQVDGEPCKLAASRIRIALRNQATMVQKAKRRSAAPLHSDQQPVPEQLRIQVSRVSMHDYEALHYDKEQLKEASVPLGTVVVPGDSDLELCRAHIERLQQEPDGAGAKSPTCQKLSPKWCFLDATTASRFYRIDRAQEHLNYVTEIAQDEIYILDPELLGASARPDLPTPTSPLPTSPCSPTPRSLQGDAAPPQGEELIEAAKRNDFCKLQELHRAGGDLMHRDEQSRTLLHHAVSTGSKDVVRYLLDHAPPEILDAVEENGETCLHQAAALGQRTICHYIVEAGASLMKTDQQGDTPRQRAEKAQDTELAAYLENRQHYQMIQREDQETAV
Sequence of DGKalpha (P23743 whole entry, species assumed): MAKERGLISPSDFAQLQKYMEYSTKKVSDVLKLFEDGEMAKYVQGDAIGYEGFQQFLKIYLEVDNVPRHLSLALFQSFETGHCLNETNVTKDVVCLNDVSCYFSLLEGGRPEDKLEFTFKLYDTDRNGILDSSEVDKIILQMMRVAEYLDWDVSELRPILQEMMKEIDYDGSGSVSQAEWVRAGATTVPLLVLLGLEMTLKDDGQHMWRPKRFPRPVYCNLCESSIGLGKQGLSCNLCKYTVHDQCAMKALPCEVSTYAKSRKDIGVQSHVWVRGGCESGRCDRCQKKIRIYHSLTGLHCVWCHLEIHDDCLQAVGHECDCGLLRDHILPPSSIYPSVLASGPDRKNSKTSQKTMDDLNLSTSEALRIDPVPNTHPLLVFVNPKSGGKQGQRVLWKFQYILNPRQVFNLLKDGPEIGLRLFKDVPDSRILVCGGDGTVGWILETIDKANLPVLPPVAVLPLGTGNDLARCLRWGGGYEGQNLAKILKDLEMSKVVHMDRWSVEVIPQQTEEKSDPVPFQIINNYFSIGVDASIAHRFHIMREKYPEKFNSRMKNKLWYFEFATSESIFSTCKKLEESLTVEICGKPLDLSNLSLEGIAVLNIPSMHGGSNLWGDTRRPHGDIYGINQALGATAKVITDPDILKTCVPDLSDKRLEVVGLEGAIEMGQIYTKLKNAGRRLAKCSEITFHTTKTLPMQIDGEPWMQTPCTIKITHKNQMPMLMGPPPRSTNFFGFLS

## CC(C)(c1nc(-c2cc3c(cc2F)S(=O)(=O)C[C@H](N)C(=O)N3Cc2ccc(Oc3ccccc3)cc2)no1)S(C)(=O)=O [Example 30, (3R)-3-amino-8-fluoro-7-[5-(1-methyl-1-methylsulfonyl-ethyl)-1,2,4-oxadiazol-3-yl]-1,1-dioxo-5-[(4-phenoxyphenyl)methyl]-2,3-dihydro-1λ6,5-benzothiazepin-4-one]
DGKzeta
  IC50: 5.5 nM
DGKalpha
  IC50: 7.8 nM

## CC(C)(c1nnc(-c2cc3c(cc2F)S(=O)(=O)C[C@H](N)C(=O)N3Cc2ccc(-c3ccc(C(F)(F)F)cc3)cc2)o1)S(C)(=O)=O [Example 35, (3R)-3-amino-8-fluoro-7-[5-(1-methyl-1-methylsulfonyl-ethyl)-1,3,4-oxadiazol-2-yl]-1,1-dioxo-5-[[4-[4-(trifluoromethyl)phenyl]phenyl]methyl]-2,3-dihydro-1λ6,5-benzothiazepin-4-one]
DGKzeta
  IC50: 6.6 nM
DGKalpha
  IC50: 7.1 nM

## CC(C)(c1nnc(-c2ccc3c(c2)N(Cc2ccc(-c4ccc(C(F)(F)F)cc4)cc2)C(=O)[C@@H](N)CS3(=O)=O)o1)S(C)(=O)=O [Example 56, (3R)-3-amino-7-[5-(1-methyl-1-methylsulfonyl-ethyl)-1,3,4-oxadiazol-2-yl]-1,1-dioxo-5-[[4-[4-(trifluoromethyl)phenyl]phenyl]methyl]-2,3-dihydro-1λ6,5-benzothiazepin-4-one]
DGKzeta
  IC50: 142 nM
DGKalpha
  IC50: 67.7 nM
